Results published in patent US9314026B2, “Heterocyclylpyri(mi)dinylpyrazole” (Bayer Intellectual Property GmbH, priority 2011, dated 2016).

Assay: determination of the log P values by HPLC on a reverse phase column (C18), EEC-Directive 79/831 Annex V.A8
Format: physicochemical
Method: Method A Note on the determination of the log P values and mass detection: The stated log P values were determined in accordance with EEC-Directive 79/831 Annex V.A8 by HPLC (High Performance Liquid Chromatography) on a reverse phase column (C18). […] The mass detection was effected with an […] system. Method B Note on the determination of the log P values and mass detection: The stated log P values were determined in accordance with EEC-Directive 79/831 Annex V.A8 by HPLC (High Performance Liquid Chromatography) on a reverse phase column (C18). […] The mass detection was effected with the Micronass ZQ2000 mass detector from Waters. Method C Note on the determination of the log P values and mass detection: The stated log P values were determined in accordance with EEC-Directive 79/831 Annex V.A8 by UPLC (Ultra Performance Liquid Chromatography) on a reverse phase column (C18). […] The mass detection was effected with the LCT Premier or SQD mass detector from Waters.

SMILES | chromatographic logP (pH 2.3) | chromatographic logP (pH 2.5) | chromatographic logP (pH 2.7)
CC1CCn2nc(-c3ccccc3)c(I)c21 (centres unmarked) [[IV-4], 3-iodo-4-methyl-2-phenyl-5,6-dihydro-4H-pyrrolo[1,2-b]pyrazole] | 3.56 | 3.56 | –
CC1CCc2c(I)c(-c3ccc(F)cc3)nn21 (centres unmarked) [[IV-5], 2-(4-fluorophenyl)-3-iodo-6-methyl-5,6-dihydro-4H-pyrrolo[1,2-b]pyrazole] | 3.78 | 3.78 | –
Clc1cc(-c2nn3c(c2I)CCCC3)cs1 [[IV-6], 2-(5-chloro-3-thienyl)-3-iodo-4,5,6,7-tetrahydropyrazolo[1,5-a]pyridine] | 4.49 | 4.49 | –
Fc1ccc(-c2cc3n(n2)CCC3)cc1 [[VI-1], 2-(4-fluorophenyl)-5,6-dihydro-4H-pyrrolo[1,2-b]pyrazole] | 2.39 | – | 2.39
Fc1ccc(-c2cc3n(n2)CCC3)cc1F [[VI-2], 2-(3,4-difluorophenyl)-5,6-dihydro-4H-pyrrolo[1,2-b]pyrazole] | 2.69 | – | 2.69
Fc1ccc(-c2cc3n(n2)CCC3)cc1Cl [[VI-3], 2-(3-chloro-4-fluorophenyl)-5,6-dihydro-4H-pyrrolo[1,2-b]pyrazole] | 3.07 | – | 3.07
CS(=O)(=O)OCCCc1cc(-c2ccc(F)cc2)n[nH]1 [[VII-1], 3-[3-(4-fluorophenyl)-1H-pyrazol-5-yl]propyl methanesulfonate] | – | – | 2
CS(=O)(=O)OCCCc1cc(-c2ccc(F)c(Cl)c2)n[nH]1 [[VII-2], 3-[3-(3-chloro-4-fluorophenyl)-1H-pyrazol-5-yl]propyl methanesulfonate] | – | – | 2.42
CS(=O)(=O)OCCCc1cc(-c2ccc(F)c(F)c2)n[nH]1 [[VII-3], 3-[3-(3,4-difluorophenyl)-1H-pyrazol-5-yl]propyl methanesulfonate] | – | – | 2.17
CC(=O)Nc1cc(-c2c(-c3ccccc3)nn3c2C(C)CC3)ccn1 (centres unmarked) [[XI-1], N-[4-(4-methyl-2-phenyl-5,6-dihydro-4H-pyrrolo[1,2-b]pyrazol-3-yl)pyridin-2-yl]acetamide] | 1.6 | – | 1.76
CCC(=O)Nc1cc(-c2c(-c3ccccc3)nn3c2C(C)CC3)ccn1 (centres unmarked) [[XI-2], N-[4-(4-methyl-2-phenyl-5,6-dihydro-4H-pyrrolo[1,2-b]pyrazol-3-yl)pyridin-2-yl]propanamide] | 1.87 | – | –
CC(=O)Nc1cc(-c2c(-c3ccc(F)cc3)nn3c2CC(C)C3)ccn1 (centres unmarked) [[XI-3], N-{4-[2-(4-fluorophenyl)-5-methyl-5,6-dihydro-4H-pyrrolo[1,2-b]pyrazol-3-yl]pyridin-2-yl}acetamide] | 1.64 | – | –
O=C(Nc1cc(-c2c(-c3ccc(F)cc3)nn3c2CCC3)ccn1)C1CC1 [[XI-4], N-{4-[2-(4-fluorophenyl)-5,6-dihydro-4H-pyrrolo[1,2-b]pyrazol-3-yl]pyridin-2-yl}cyclopropanecarboxamide] | 1.73 | – | –
COCC(=O)Nc1cc(-c2c(-c3ccccc3)nn3c2C(C)CC3)ccn1 (centres unmarked) [[XI-5], 2-methoxy-N-[4-(4-methyl-2-phenyl-5,6-dihydro-4H-pyrrolo[1,2-b]pyrazol-3-yl)pyridin-2-yl]acetamide] | 2.22 | – | –
CCC1CCc2c(-c3ccnc(NC(C)=O)c3)c(-c3ccc(F)cc3)nn21 (centres unmarked) [[XI-6], N-{4-[6-ethyl-2-(4-fluorophenyl)-5,6-dihydro-4H-pyrrolo[1,2-b]pyrazol-3-yl]pyridin-2-yl}acetamide] | 1.96 | – | –
CCC(=O)Nc1cc(-c2c(-c3ccc(F)cc3)nn3c2CC(C)C3)ccn1 (centres unmarked) [[XI-7], N-{4-[2-(4-fluorophenyl)-5-methyl-5,6-dihydro-4H-pyrrolo[1,2-b]pyrazol-3-yl]pyridin-2-yl}propanamide] | 1.91 | – | –
CC(C)C(=O)Nc1cc(-c2c(-c3ccc(F)cc3)nn3c2CCC3)ccn1 [[XI-8], N-{4-[2-(4-fluorophenyl)-5,6-dihydro-4H-pyrrolo[1,2-b]pyrazol-3-yl]pyridin-2-yl}-2-methylpropanamide] | 1.97 | – | –
CCC(=S)Nc1cc(-c2c(-c3ccc(F)cc3)nn3c2CCC3)ccn1 [[XI-9], N-{4-[2-(4-fluorophenyl)-5,6-dihydro-4H-pyrrolo[1,2-b]pyrazol-3-yl]pyridin-2-yl}propanethioamide] | 2.74 | – | –
CCC(=O)Nc1cc(-c2c(-c3ccc(F)c(F)c3)nn3c2CCC3)ccn1 [[XI-10], N-{4-[2-(3,4-difluorophenyl)-5,6-dihydro-4H-pyrrolo[1,2-b]pyrazol-3-yl]pyridin-2-yl}propanamide] | 1.93 | – | –

SMILES | chromatographic logP (pH 2.3) | chromatographic logP (pH 2.5) | chromatographic logP (pH 2.7)
CC1CCn2nc(-c3ccccc3)c(-c3ccnc(NC(=O)CC4CC4)c3)c21 (centres unmarked) [[XI-11], 2-cyclopropyl-N-[4-(4-methyl-2-phenyl-5,6-dihydro-4H-pyrrolo[1,2-b]pyrazol-3-yl)pyridin-2-yl]acetamide] | 2.32 | – | –
CCC(=O)Nc1cc(-c2c(-c3csc(Cl)c3)nn3c2CCC3)ccn1 [[XI-12], N-{4-[2-(5-chloro-3-thienyl)-5,6-dihydro-4H-pyrrolo[1,2-b]pyrazol-3-yl]pyridin-2-yl}propanamide] | 1.95 | – | –
O=C(CC1CC1)Nc1cc(-c2c(-c3ccc(F)cc3)nn3c2CCC3)ccn1 [[XI-13], 2-cyclopropyl-N-{4-[2-(4-fluorophenyl)-5,6-dihydro-4H-pyrrolo[1,2-b]pyrazol-3-yl]pyridin-2-yl}acetamide] | 2.08 | – | –
O=C(Nc1cc(-c2c(-c3ccc(F)cc3)nn3c2CCC3)ccn1)C1CCC1 [[XI-14], N-{4-[2-(4-fluorophenyl)-5,6-dihydro-4H-pyrrolo[1,2-b]pyrazol-3-yl]pyridin-2-yl}cyclobutanecarboxamide] | 2.08 | – | –
CC(C)CC(=O)Nc1cc(-c2c(-c3ccc(F)cc3)nn3c2CCC3)ccn1 [[XI-15], N-{4-[2-(4-fluorophenyl)-5,6-dihydro-4H-pyrrolo[1,2-b]pyrazol-3-yl]pyridin-2-yl}-3-methylbutanamide] | 2.2 | – | –
CCC(=O)Nc1cc(-c2c(-c3ccc(F)cc3)nn3c2CCC3CC)ccn1 (centres unmarked) [[XI-16], N-{4-[6-ethyl-2-(4-fluorophenyl)-5,6-dihydro-4H-pyrrolo[1,2-b]pyrazol-3-yl]pyridin-2-yl}propanamide] | 2.3 | – | –
CCC(C)C(=O)Nc1cc(-c2c(-c3ccc(F)cc3)nn3c2CCC3)ccn1 (centres unmarked) [[XI-17], N-{4-[2-(4-fluorophenyl)-5,6-dihydro-4H-pyrrolo[1,2-b]pyrazol-3-yl]pyridin-2-yl}-2-methylbutanamide] | 2.23 | – | –
COCC(=O)Nc1cc(-c2c(-c3ccc(F)cc3)nn3c2CC(C)C3)ccn1 (centres unmarked) [[XI-18], N-{4-[2-(4-fluorophenyl)-5-methyl-5,6-dihydro-4H-pyrrolo[1,2-b]pyrazol-3-yl]pyridin-2-yl}-2-methoxyacetamide] | 2.3 | – | –
CCC(=O)Nc1cc(-c2c(-c3ccc(F)cc3)nn3c2C(OC)CC3)ccn1 (centres unmarked) [[XI-19], N-{4-[2-(4-fluorophenyl)-4-methoxy-5,6-dihydro-4H-pyrrolo[1,2-b]pyrazol-3-yl]pyridin-2-yl}propanamide] | 1.72 | – | –
O=C(Nc1cc(-c2c(-c3csc(Cl)c3)nn3c2CCC3)ccn1)C1CC1 [[XI-20], N-{4-[2-(5-chloro-3-thienyl)-5,6-dihydro-4H-pyrrolo[1,2-b]pyrazol-3-yl]pyridin-2-yl}cyclopropanecarboxamide] | 2.02 | – | –
CC(C)C(=O)Nc1cc(-c2c(-c3csc(Cl)c3)nn3c2CCC3)ccn1 [[XI-21], N-{4-[2-(5-chloro-3-thienyl)-5,6-dihydro-4H-pyrrolo[1,2-b]pyrazol-3-yl]pyridin-2-yl}-2-methylpropanamide] | 2.24 | – | –
CC1Cc2c(-c3ccnc(NC(=O)CC4CC4)c3)c(-c3ccc(F)cc3)nn2C1 (centres unmarked) [[XI-22], 2-cyclopropyl-N-{4-[2-(4-fluorophenyl)-5-methyl-5,6-dihydro-4H-pyrrolo[1,2-b]pyrazol-3-yl]pyridin-2-yl}acetamide] | 2.36 | – | –
CC1OCCc2c(-c3ccnc(NC(=O)C4CC4)c3)c(-c3ccc(F)cc3)nn21 (centres unmarked) [[XI-23], N-{4-[2-(4-fluorophenyl)-7-methyl-4,5-dihydropyrazolo[1,5-c][1,3]oxazin-3-yl]pyridin-2-yl}cyclopropanecarboxamide] | 2.33 | – | –
O=C(Nc1cc(-c2c(-c3ccc(F)cc3)nn3c2CCC3)ccn1)C1CCOC1 (centres unmarked) [[XI-24], N-{4-[2-(4-fluorophenyl)-5,6-dihydro-4H-pyrrolo[1,2-b]pyrazol-3-yl]pyridin-2-yl}tetrahydrofuran-3-carboxamide] | 1.69 | – | –
O=C(CC1CC1)Nc1cc(-c2c(-c3csc(Cl)c3)nn3c2CCC3)ccn1 [[XI-25], N-{4-[2-(5-chloro-3-thienyl)-5,6-dihydro-4H-pyrrolo[1,2-b]pyrazol-3-yl]pyridin-2-yl}-2-cyclopropylacetamide] | 2.4 | – | –
CCC1CCc2c(-c3ccnc(NC(=O)CC4CC4)c3)c(-c3ccc(F)cc3)nn21 (centres unmarked) [[XI-26], 2-cyclopropyl-N-{4-[6-ethyl-2-(4-fluorophenyl)-5,6-dihydro-4H-pyrrolo[1,2-b]pyrazol-3-yl]pyridin-2-yl}acetamide] | 2.81 | – | –
O=C(Nc1cc(-c2c(-c3ccc(F)cc3)nn3c2CCC3)ccn1)C1CCOCC1 [[XI-27], N-{4-[2-(4-fluorophenyl)-5,6-dihydro-4H-pyrrolo[1,2-b]pyrazol-3-yl]pyridin-2-yl}tetrahydro-2H-pyran-4-carboxamide] | 1.77 | – | –
O=C(CCc1ccccc1)Nc1cc(-c2c(-c3ccc(F)cc3)nn3c2CCC3)ccn1 [[XI-28], N-{4-[2-(4-fluorophenyl)-5,6-dihydro-4H-pyrrolo[1,2-b]pyrazol-3-yl]pyridin-2-yl}-3-phenylpropanamide] | 2.62 | – | –
